{"source": "patent US20190092769A1", "about": "“[…] AND T[…] ACTING UPON THE […] AND CENTRAL NERVOUS SYSTEMS” (CENTRO DE INVESTIGACION Y […] LOS MEDICAMENTOS (CIDEM), priority 2009, published 2019)", "key": {"[1]": {"test_system": "cerebellar granules damaged with glutamate", "experiment": "Cytoprotective effect in cerebellar granules exposed to glutamate", "format": "cell-based", "text": "For neuro-protective in vitro evaluation, we used PC12 cell cultures exposed to damage from glutamate and hydrogen peroxide, as well as cerebellar granules damaged with glutamate.\nDiazepam (DZP), derivative of commercial 1,4-benzodiazepine."}, "[2]": {"test_system": "mitochondrial permeability transition (MPT)", "experiment": "Mitochondrial permeability transition in isolated mitochondria (absorbance decrease at 540 nm)", "format": "biochemical", "conditions": "inducers Ca2+ 50 μM and phosphate (Pi)", "text": "Mitochondrial permeability transition can be estimated by absorbance decrease of a mitochondrial suspension at 540 nm."}, "[3]": {"test_system": "mitochondrial membrane potential", "experiment": "Dissipation of mitochondrial membrane potential (safranine O fluorescence)", "format": "biochemical", "conditions": "Ca2+ 50 μM and phosphate (Pi) 2 mM", "experimental": "This membrane potential can be fluorimetrically estimated by using safranine O. This marker is captured in the suspension by energized mitochondria (in the presence of substrates of the electronic transportation chain, such as succinate) provoking a fluorescence decrease. When the MPT process takes place, safranine is again released to the environment, thus increasing, fluorescence. […] In a dosage dependent manner, JM-20 inhibits potential loss, being the maximum inhibitory level at 15 μM (orange line).\nSafranine (10 μM) is captured by energized mitochondria (succinate 5 mM rotenone 2.5 μM). In the presence of MPT inducers such as Ca^2+ and Pi, an immediate loss of mitochondrial membrane potential takes place (black line) that is prevented by the classic MPT inhibitor, CsA (red line) and by JM-20 (green, blue and orange lines) in a dosage dependent manner. The excitation/emission wave length used for safranine are 495/586 nm, respectively. A mitoprotective behavior similar to the one reported in the previous Table was found in the other molecules evaluated."}, "[4]": {"molecular_target": "T1, mitochondrial uniporter calcium excipient (Homo sapiens, UniProt Q8NE86)", "T1 construct": "This experiment is also carried out with isolated mitochondria (0.5 mg/ml); from tissue", "T1 sequence (Q8NE86 51-351)": "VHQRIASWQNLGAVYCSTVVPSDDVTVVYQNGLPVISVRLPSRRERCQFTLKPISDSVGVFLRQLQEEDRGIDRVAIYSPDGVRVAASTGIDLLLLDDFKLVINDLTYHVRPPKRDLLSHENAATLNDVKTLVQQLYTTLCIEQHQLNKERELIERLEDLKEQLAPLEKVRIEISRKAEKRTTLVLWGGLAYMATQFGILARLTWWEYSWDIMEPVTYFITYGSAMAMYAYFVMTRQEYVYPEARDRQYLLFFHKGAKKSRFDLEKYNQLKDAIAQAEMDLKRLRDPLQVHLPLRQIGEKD", "T1 sequence (Q9H4I9 48-107 partner limits assumed)": "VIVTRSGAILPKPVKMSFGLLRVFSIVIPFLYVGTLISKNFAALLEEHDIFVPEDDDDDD", "experiment": "Mitochondrial calcium capture in isolated mitochondria (Calcium Green 5N)", "format": "biochemical", "quoted_text": "This experiment is also carried out with isolated mitochondria (0.5 mg/ml) energized with succinate 5 mM+rotenone 2.5 μM and the presence of Calcium Green 5N fluorescent marker which increases fluorescence in the presence of calcium. […] The excitation/emission wave lengths used for Calcium Green 5N are 506/531 nm, respectively."}, "[5]": {"molecular_target": "T2, mitochondrial FOF1 ATPase (complex V) (Rattus norvegicus, UniProt P10719+P15999)", "T2 construct": "These particles are obtained from isolated mitochondria from Wistar rats' liver; from tissue; host or cells: submitochondrial particles from Wistar rat liver mitochondria (sonicated)", "experiment": "ATP hydrolysis by FOF1 ATPase in submitochondrial particles", "format": "biochemical, Wistar rats", "text": "These particles are obtained from isolated mitochondria from Wistar rats' liver, submitted to an ultrasound process to break their membranes. Thus, so-called mitoplasts or submitchondrial particles are formed with inverted portions of the inner membrane that preserve the ATP hydrolytic activity of the FOF1 ATPase in the presence of external ATP."}}, "data": [{"compound": "4-(2′-Nitrophenyl)-3-Carbonylalcohoxi-2-Methyl-1, 4-Dihydropyrido (2,3-b-5,6-e)-1,4-Benzodiazepine [JM-20]", "values": [{"measurement": "cytoprotective effect at concentrations lower than that of Nifedipine and Diazepam independently", "setting": "[1]", "value": 100, "unit": "times"}, {"measurement": "MIC: concentration at which total inhibition of mitochondrial permeability transition took place", "setting": "[2]", "value": 15, "unit": "µM"}, {"measurement": "maximum inhibitory level for loss of mitochondrial membrane potential", "setting": "[3]", "value": 15, "unit": "µM"}, {"measurement": "inhibition of calcium mitochondrial uptake", "setting": "[4]; 10 μM, isolated mitochondria 0.5 mg/ml, 20 μM Ca2+", "value": "significantly inhibits"}, {"measurement": "inhibition of the mitochondrial calcium transmitter compared with Nifedipine", "setting": "[4]; FIG. 25", "value": "more powerful in inhibiting the transmitter than other dihydropyridines (Nif)"}, {"measurement": "IC50", "setting": "[5]; submitochondrial particles from Wistar rats' liver mitochondria, read-out: mean inhibitory concentration (IC50) of ATP hydrolysis", "value": 10.2, "unit": "µM"}]}, {"compound": "CN1C(=O)CN=C(c2ccccc2)c2cc(Cl)ccc21", "note": "[Diazepam, reference compound]", "values": [{"measurement": "inhibition of calcium captation by the organelle", "setting": "[4]; 20 μM, isolated mitochondria 0.5 mg/ml, 20 μM Ca2+", "value": "neither nifedipine (Nif 20 μM_light blue line) nor diazepam (DZP 20 μM), or the combination of both (Nif+DZP 1.0 μM—pink line) succeeded in inhibiting"}, {"measurement": "inhibition of the hydrolytic activity of the mitochondrial enzyme (in words)", "setting": "[5]", "value": "Neither Nifedipine: nor Diazepam inhibited"}]}, {"compound": "N.N.N.N.N.N.N.N.N.N.N.N.N.N.[Cl-].[Cl-].[Cl-].[Cl-].[Cl-].[Cl-].[O-2].[O-2].[Ru+3].[Ru+3].[Ru+4]", "note": "[Ruthenium-red, reference compound]", "values": [{"measurement": "inhibition of calcium captation by the organelle", "setting": "[4]; 1 μM, isolated mitochondria 0.5 mg/ml, 20 μM Ca2+", "value": "calcium captation does not occur"}]}]}
